Assays:
U-251 = test: Cytotoxicity against human U251 cells after 48 hrs by MTT assay; format: functional; conditions: U-251, 48 h
MCF7 = test: Cytotoxicity against human MCF7 cells after 48 hrs by MTT assay; format: functional; conditions: MCF7, 48 h
NCI/ADR-RES = test: Cytotoxicity against human NCI-ADR-RES cells after 48 hrs by MTT assay; format: functional
PC-3 = test: Cytotoxicity against human PC3 cells after 48 hrs by MTT assay; format: functional; conditions: PC-3, 48 h
[1] = Antioxidant activity assessed as hydroxyl radical scavenging activity after 5 mins by H2DCF-DA dye based fluorescence spectrophotometric analysis; format: functional
[2] = Chemopreventive index, ratio of IC50 for mouse Hepa-1c1c7 cells to drug level required to double NADPH:quinone reductase activity in mouse Hepa-1c1c7 cells
HT-29 = test: Cytotoxicity against human HT-29 cells after 3 days by sulforhodamine B assay; format: functional, cell-based; conditions: HT-29, 72 h
Transcription factor p65 = Transcription factor p65 (Homo sapiens, UniProt Q04206); test: Inhibition of NF-kappaB p65 in human HeLa cells nuclear extract by chemiluminescent assay; format: cell-free
Chain of Transcription factor p65 (Q04206 whole entry): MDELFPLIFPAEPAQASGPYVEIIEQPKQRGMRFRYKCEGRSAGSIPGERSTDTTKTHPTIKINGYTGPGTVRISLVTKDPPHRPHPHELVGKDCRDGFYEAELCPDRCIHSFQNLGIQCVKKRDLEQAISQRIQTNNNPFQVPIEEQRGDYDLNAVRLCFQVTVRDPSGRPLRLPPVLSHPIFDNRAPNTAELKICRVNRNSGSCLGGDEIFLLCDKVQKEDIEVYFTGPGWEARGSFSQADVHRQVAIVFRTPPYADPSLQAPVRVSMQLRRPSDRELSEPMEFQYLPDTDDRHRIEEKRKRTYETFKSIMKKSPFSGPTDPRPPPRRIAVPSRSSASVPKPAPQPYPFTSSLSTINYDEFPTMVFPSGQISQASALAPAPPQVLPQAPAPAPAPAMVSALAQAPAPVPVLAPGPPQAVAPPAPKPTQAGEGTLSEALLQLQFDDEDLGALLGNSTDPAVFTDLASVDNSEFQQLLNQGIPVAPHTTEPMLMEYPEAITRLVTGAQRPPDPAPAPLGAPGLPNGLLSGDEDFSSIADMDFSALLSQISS

SMILES | TGI (U-251) [µM] | TGI (MCF7) [µM] | TGI (NCI/ADR-RES) [µM] | TGI (PC-3) [µM] | ED50 [1] [µM] | Ratio [2] | IC50 (HT-29) [µM] | further results
COc1cccc2c1C(=O)c1c(O)c3c(c(O)c1C2=O)C[C@@](O)(C(=O)CO)C[C@@H]3O[C@H]1C[C@H](N)[C@H](O)[C@H](C)O1 [DOXORUBICIN] | 6.9 | 12.2 | 16.1 | 4 |  |  |  | 
C=CC(C)(C)c1cc(-c2oc3cc(O)ccc3c2Cc2cc(-c3cc4cc(C(C)(C)C=C)c(O)cc4oc3=O)c(O)cc2O)c(O)cc1O |  |  |  |  | 0.7 to 0.9 | 1.3 - 7.4 | 1.6 to 4.5 | 
COc1ccc2c(c1)OCC(c1cc(Cc3c(-c4ccc(O)cc4O)oc4cc(OC)ccc34)c(O)cc1O)C2 (stereo not drawn) | 17.2 | 27 | 19.1 | 19.1 |  |  |  | CC50 (U-251; read-out: LC50 (the source's name)): ≥ 10 µM; LC50 (lethal concentration 50%) (MCF7): ≥ 10 µM; LC50 (concentration killing 50% of cells) (NCI/ADR-RES): ≥ 10 µM; LC50 (PC-3): ≥ 10 µM
C=CC(C)(C)c1cc(C(=O)c2c(-c3cc(-c4cc5cc(C(C)(C)C=C)c(O)cc5oc4=O)c(O)cc3O)oc3cc(O)ccc23)c(O)cc1O |  |  |  |  | 0.7 to 0.9 | 1.3 - 7.4 | 1.6 to 4.5 | IC50 (Transcription factor p65): 0.006 µM
C=CC(C)(C)c1cc2c(cc1O)OC[C@H](c1cc(-c3oc4cc(O)ccc4c3C(=O)c3cc(C(C)(C)C=C)c(O)cc3O)c(O)cc1O)C2 |  |  |  |  | 0.7 to 0.9 | 1.3 - 7.4 | 1.6 to 4.5 | 
COc1ccc2c(c1)OCC(c1cc(-c3oc4cc(OC)ccc4c3Cc3ccc(O)cc3O)c(O)cc1O)C2 (stereo not drawn) | 25 | 34.6 | 29.9 | 21.9 |  |  |  | LC50 (PC-3): ≥ 10 µM
C[S+]([O-])CCCCN=C=S (stereo not drawn) [SULFORAPHANE] |  |  |  |  |  | 21.4 |  | 
